Like-named read-outs stand apart in the source and are kept apart here. Marks after values point to notes of the source that are not given here.
Experiments:
[1] = Metabolic stability in mouse liver microsomes; type: in vitro ADME; conditions: for half-life at 0.5 μM: mouse, liver microsomes
Description: Test compounds (0.5 μM) were incubated at 37° C. for up to 45 minutes in 50 mM of potassium phosphate buffer (pH 7.4) containing mouse liver microsomal protein (0.5 mg/mL) and an NADPH generating system (0.34 mg/mL β-nicotinamide adenine dinucleotide phosphate (NADP), 1.56 mg/mL glucose-6-phosphate, 1.2 units/mL glucose-6-phosphate dehydrogenase). At 0, 5, 15, 30, and 45 minute intervals, an aliquot was taken and quenched with acetonitrile (ACN) containing internal standard. No-cofactor controls at 45 minutes were prepared. Following completion of the experiment, the samples were analyzed by LC-MS/MS.
The half-life (t1/2) was calculated using the following equation: t1/2=0.693/k Where, k is the elimination rate constant of test compounds obtained by fitting the data to the equation: C=initial×exp(−k×t) Intrinsic clearance (Clint) is calculated as liver clearance from the half-life using the following equation: […]
0.5 mg protein/mL incubation
Ethoxycoumarin was used as a control.

[2] = In vitro stability study in mouse plasma; type: in vitro ADME; conditions: for Percent Remaining: 37° C.
Description: The assay was conducted by incubating 1 μM of test compounds with Mouse Plasma (Strain […]) for a series of incubation times (0, 15, 30, 60, 120 minutes) at various temperatures (wet ice, room temperature, or 37° C.) with 5% CO2 and shaking (130 rpm). At each time point, the samples were quenched with 200 μL of stop solution containing an internal standard and kept on ice. The samples were analysed by LC-MS/MS.

[3] = system: C57BL/6 mice, kidney ischemia-reperfusion injury; experiment: Kidney model of ischemia-reperfusion injury (IRI); type: in vivo
Description: As an initial in vivo study, the effects of Fer-1 and SRS16-86 on serum creatinine, a marker of kidney damage, were evaluated in an ischemia reperfusion injury (IRI) model of kidney failure (FIG. 21).
Organs were dissected as indicated in each experiment and infused with 4% (vol/vol) neutral-buffered formaldehyde, fixated for 48 h, dehydrated in a graded ethanol series and xylene, and finally embedded in paraffin. Stained sections were analyzed using an Axio Imager microscope (Zeiss). Kidney damage was quantified by two experienced pathologists in a double-blind manner on a scale ranging from 0 (unaffected tissue) to 10 (severe organ damage). The following parameters were chosen as indicative of morphological damage to the kidney after ischemia-reperfusion injury (IRI): brush border loss, red blood cell extravasation, tubule dilatation, tubule degeneration, tubule necrosis, and tubular cast formation. These parameters were evaluated on a scale of 0-10, which ranged from not present (0), mild (1-4), moderate (5 or 6), severe (7 or 8), to very severe (9 or 10). Each parameter was determined on at least four different animals.
Induction of kidney IRI was performed via a midline abdominal incision and a bilateral renal pedicle clamping for either 40 min (severe IRI, or “lethal-to-WT” IRI) or 50 min (ultra-severe IRI) using microaneurysm clamps (Aesculab). Throughout the surgical procedure, the body temperature was maintained between 36° C. and 37° C. by continuous monitoring using a temperature-controlled self-regulated heating system (Fine Science Tools). After removal of the clamps, reperfusion of the kidneys was confirmed visually. The abdomen was closed in two layers using standard 6-0 sutures. Sham-operated mice underwent the identical surgical procedures, except that microaneurysm clamps were not applied. To maintain fluid balance, all of the mice were supplemented with 1 mL of prewarmed PBS administered intraperitoneally directly after surgery. All mice were killed 48 h after reperfusion for each experiment. […] All ischemia-reperfusion experiments were performed in a double-blinded manner.

HT1080 cells = experiment: FACS (7AAD / annexin V) of erastin-treated HT1080 cells; type: cell-based, human; conditions: 50 μM erastin, 1 μM compound
Description: (§1) For induction of necroptosis, HT-29 cells were stimulated for 24 h at 37° C. with 100 ng/mL TNFα plus 1 μM Smac mimetics plus 25 μM zVAD as indicated (vehicle-treated cells served as control). For induction of ferroptosis, NIH and HT-1080 cells were each stimulated for 24 h at 37° C. with 50 μM erastin as indicated (vehicle-treated cells served as a control). For induction of apoptosis, Jurkat cells were stimulated for 4 h with 100 ng/mL monoclonal anti-Fas (clone 7C11; Immunotech). Anti-Fas-induced apoptosis of Jurkat cells was inhibited by further addition of 25 μM zVAD (vehicle-treated cells served as control).
(§2) Phosphatidylserine exposure to the outer cell membrane of apoptotic cells or at the inner plasma membrane of necrotic cells and incorporation of 7-AAD into necrotic cells were quantified by fluorescence-activated cell sorting (FACS) analysis. The ApoAlert annexin V-FITC antibody and the 7-AAD antibody were purchased from BD Biosciences.

NIH 3T3 cells = experiment: FACS (7AAD / annexin V) of erastin-treated NIH 3T3 cells; type: cell-based, murine; conditions: 50 μM erastin, 1 μM compound
Description: as §1, §2

[4] = system: freshly isolated murine renal tubules; experiment: Synchronized necrosis of freshly isolated renal tubules (fatty-acid depletion / erastin); type: cell-based, mouse; conditions: in the presence of fatty acids
Description: Six to 12 mice were used for each isolated tubule preparation, depending on the amount of material needed for particular experiments. For preparation of isolated tubules, mice were anesthetized with ketamine (100 mg/kg i.p.) and xylazine (10 mg/kg i.p.), and the kidneys were immediately removed. Type I collagenase was from Worthington Biochemical. Percoll was purchased from Amersham Biosciences. All other reagents and chemicals, including delipidated BSA, were of the highest grade available from Sigma-Aldrich. […] The cortices were then dissected and minced on an ice-cold tile and then resuspended in additional solution A for 8-10 min of digestion at 37° C., followed by enrichment of proximal tubules using centrifugation on self-forming Percoll gradients. For Nec-1 studies in renal tubules, renal cortices were dissected in ice-cold dissection solution (DS) [HBSS with 10 mmol/L glucose, 5 mmol/L glycine, 1 mmol/L alanine, 15 mmol/L Hepes (pH 7.4); osmolality, 325 mOsmol/L] and sliced into 1-mm pieces. The fragments were transferred to collagenase solution (DS with 0.1% (wt/vol) type 2 collagenase and 96 μg/mL soybean trypsin inhibitor) and digested for 30 min at 37° C. and 61×g. After digestion, the supernatant was sieved through two nylon sieves: first 250-μm pore size and then 100-μm pore size. […]

SMILES: CC(C)(C)OC(=O)c1ccc(NC23CC4CC(CC(C4)C2)C3)c(/N=C\c2cncnc2)c1 [SRS16-86, tert-butyl 4-(adamantylamino)-3-(pyrimidin-5-ylmethyleneamino)benzoate]
- Elimination rate constant (k) ([1]; Mouse, Compound Conc = 0.5 μM): <0.0048
- Intrinsic Clearance (CLint) (mL/min/g liver) ([1]; Mouse, Compound Conc = 0.5 μM): <0.5* mL/min/g liver
- half-life at 0.5 μM ([1]; pH 7.4, Mouse, Compound Conc = 0.5 μM, read-out: Half life (t½)): > 1.5 h
- half-life at 0.5 μM ([1]; pH 7.4, stated in the text of Example 15, read-out: T1/2 in mouse liver microsomes): > 2 h
- Percent Remaining ([2]; 0 minutes): 100.0%
- Percent Remaining ([2]; 15 minutes): 82.2%
- Percent Remaining ([2]; 30 minutes): 86.5%
- Percent Remaining ([2]; 60 minutes): 83.9%
- Percent Remaining ([2]; 120 minutes): 63.9%
- half-life at 1 μM ([2]; C57BL/4, mouse, plasma, read-out: T1/2 in mouse plasma): > 2 h
- serum creatinine in IRI model of kidney failure ([3]; 2 mg/kg IP 30 minutes prior to induction of IRI): effective
- functional acute renal failure and structural organ damage after severe IRI ([3]; 40 min ischemia, 48 h after reperfusion, 2 mg/kg i.p.): protected from functional acute renal failure
- serum urea and serum creatinine in ultrasevere IRI, added to Nec-1+SfA ([3]; 50 min ischemia, Nec-1+SfA-treated mice, 2 mg/kg i.p.): reduced plasma levels of serum urea and serum creatinine
- ferroptosis-inhibiting ability (FACS) (HT1080 cells): active compound
- ferroptosis-inhibiting ability (FACS) (NIH 3T3 cells): active compound
- tubular necrosis [4]: prevented

— US11192849B2, “Compounds, compositions, and methods for modulating ferroptosis and treating excitotoxic disorders” (THE TRUSTEES OF COLUMBIA UNIVERSITY IN THE CITY OF NEW YORK, priority 2013, dated 2021)
